From patent US20220313650A1, “METHODS FOR TREATING NEURODEVELOPMENTAL DISORDERS” (The Broad Institute, Inc., priority 2019, published 2022)
“Also recorded” adds a separate entry of the source.

How the values were obtained:
WT TRN neurons = experiment: Whole-cell patch-clamp rebound burst firing in acute brain slices, WT mice; type: cell-based
Protocol: (§1) For conducting slice electrophysiology analysis, whole-cell patch-clamp recordings were performed using horizontal slices for the rebound bursting assays and angled-coronal thalamocortical slices for the synaptic optogenetics experiments (Agmon et al., 1991). 21-35 day old male C57BL6 mice and Ptchd1 Y/− (knockout) mice were used. Animals were transcardially perfused under isoflurane anesthesia with an ice-cold cutting solution (194 mM Sucrose, 30 mM NaCl, 4.5 mM KCl, 1.2 mM NaH2PO4, 10 mM Glucose, 2 mM MgCl2, 0.2 mM CaCl2, and 26 mM NaHCO3). Mice were then decapitated and the brains were carefully dissected out. Both cerebellum and olfactory bulb were removed from the brain and were placed and glued onto the stage of a Leica Vibratome with the ventral surface down and the pial surface towards the blade. 250 micron thick slices containing the TRN were then collected and recovered in regular artificial cerebrospinal fluid (aCSF; 119 mM NaCl, 2.3 mM KCl, 1 mM NaH2PO4; 11 mM Glucose, 1.3 mM MgCl2, 2.5 mM CaCl2), 26 mM NaHCO3) heated to 32° C. for 10 minutes and then at room temperature for at least 1 hr. All buffers were continuously bubbled with 95% O2/5% C02. Slices were then transferred to a submersion recording chamber where they were perfused with aCSF at a rate of 2 ml/min at room temperature. Patch recording pipettes were pulled using a Flaming/Brown micropipette puller (Sutter Instruments) and Borosilicate glass (KG33, King Precision Glass). The DC resistances were ˜4-6 MΩ. Potassium methanesulfonate based internal solution (140 mM KMeSO3; 10 mM KCl; 10 mM HEPES; 0.1 mM EGTA; 4 mM Mg-ATP; 0.2 mM Na-GTP; 10 mM hosphocreatine) was used. Neurons were visualized using infrared differential interference contrast (IR-DIC) microscopy (Olympus, BX51W1) with an upright microscope digital camera.
The recordings were made with a microelectrode amplifier with bridge and voltage clamp modes of operation (Multiclamp 700B, Molecular Devices, San Jose, Calif., USA). Signals were low-pass filtered at 2 kHz and sampled at 10-20 kHz with a Digidata 1440A (Molecular Devices, San Jose, Calif., USA). Data were stored on a computer for subsequent off-line analysis. Cells with the series resistance (Rs, typically 8-12 MΩ) changed by >20% were excluded for data analysis. In addition, cells with Rs more than […] at any time during the recordings were discarded.

Ptchd1 KO TRN neurons = experiment: Whole-cell patch-clamp rebound burst firing in acute brain slices, Ptchd1 KO mice; type: cell-based; settings: Mavalon 63
Protocol: as §1, with “Patch recording pipettes were pulled using a Flaming/Brown micropipette puller (Sutter Instruments) and Borosilicate glass (KG33, King Precision Glass). The DC resistances were ˜4-6 MΩ. Potassium methanesulfonate based internal solution (140 mM KMeSO3; 10 mM KCl; 10 mM HEPES; 0.1 mM EGTA; 4 mM Mg-ATP; 0.2 mM Na-GTP; 10 mM hosphocreatine) was used. Neurons were visualized using infrared differential interference contrast (IR-DIC) microscopy (Olympus, BX51W1) with an upright microscope digital camera.” left out

cortico-TRN synapses = experiment: Optogenetically evoked EPSCs in patched TRN neurons, cortico-TRN pathway; type: cell-based, mice; settings: cortico-TRN synapses, before vs after bath application
Protocol: as §1
To study the changes in the acute somatosensory thalamocortical or horizontal brain areas, 21-25 days old Nex-Cre or VgluT2-Cre mice were anesthetized with isoflurane while placed in a small animal stereotaxic apparatus (David Kopf Instruments, CA, USA) and were injected bilaterally with 280 nl of mcherry-dflox.hChR2.EF1.AAV1 using a Nanoject (Drummond Scientific, Broomall, Pa.) via glass pipettes with […] diameter tips in somatosensory cortex (S1) and ventrobasal thalamic complex (VB). Coordinates from the bregma for S1: AP −0.7, ML 2.4 and DV 1.2 and for VB: AP −1.6, ML 1.5 and DV 3.5. The pipette was held in the final position for 10 min after injection before withdrawal from the brain. The incision was closed with vetbond and after surgery mice were injected with analgesics (SR-Bupronex 1 mg/kg) every 72 hours or as needed. […]
(§2) After allowing 1-2 weeks for mcherry-dflox.hChR2.EF1.AAV1 expression, acute somatosensory thalamocortical or horizontal brain slices were freshly obtained for in vitro recording and optogenetic stimulation (250 um thick, thalamocortical slices containing TRN from angled-coronal sections; Agmon and Connors, 1991) for optogenetic analysis. In brief, patch clamp recordings in voltage clamp configuration were performed while the Cortico-TRN or Thalamic-TRN pathway was activated by applying a blue LED (400-450 nm) light pulses (Lumen 300-LED Fluorescence Excitation Illumination System). For synaptic stimulation, neurons were held at −70 mV while 0.1-1.5 ms flashes were delivered directly to the recorded cell soma delivered through the 40× water immersion objective. […]

thalamo-TRN synapses = experiment: Optogenetically evoked EPSCs in patched TRN neurons, thalamo-TRN pathway; type: cell-based, mice; settings: thalamo-TRN synapses, before vs after bath perfusion
Protocol: as §1, with “camera. […]” for “camera.”
as §2

wild type mice = experiment: EEG/EMG sleep recording, WT mice; type: in vivo; settings: Mavalon 63 10 mg/kg ip, 12 h recordings, 10 mg/kg
Description: For EEG recording studies, 8- to 12-week-old male mice with C57Bl/6J background, Ptchd1Y/− (knockout) and Ptchd1Y/+ (wild type) were deeply anesthetized with a 1% to 1.5% isoflurane. A screw electroencephalography (EEG) electrode (catalog no. 8403; Pinnacle Technology, Inc.) was implanted into the skull above the primary somatosensory cortex, S1 (AP: −1.8 and ML: +3.0 mm) using a stereotaxic device (David Kopf Instruments). A reference electrode was screwed in the occipital region of the skull and stainless steel electromyography (EMG) electrodes were placed in the nuchal muscle. All the electrodes were connected to a head-mount (catalog no. 8201-SS; Pinnacle Technology) and secured by using dental cement. The mice were allowed to recover for at least 2 weeks. Spontaneous EEG/EMG signals were recorded for 12 hours with a differential amplifier (8200-K1-SL amplifier; Pinnacle Technology). […] Data were analyzed offline using Matlab (R2016a; MathWorks). The spectral power was calculated in 0.5-Hz bins (fast Fourier transform with Hamming window) with artifact-free 4-hour EEG signals from each animal. […]
(§3) EEG and EMG from the frontal and parietal cortex and from the nuchal muscular complex were simultaneously recorded.
(§4) Surface electroencephalography (EEG) and electromyography (EMG) from the frontal and parietal cortex and from the nuchal muscular complex were simultaneously recorded.

Ptchd1 KO mice [1] = experiment: EEG/EMG sleep recording, Ptchd1 KO mice; type: in vivo; settings: Ptchd1 KO mice, Mavalon 63 10 mg/kg ip, 12 h recordings; 10 mg/kg
Description: For EEG recording studies, 8- to 12-week-old male mice with C57Bl/6J background, Ptchd1Y/− (knockout) and Ptchd1Y/+ (wild type) were deeply anesthetized with a 1% to 1.5% isoflurane. A screw electroencephalography (EEG) electrode (catalog no. 8403; Pinnacle Technology, Inc.) was implanted into the skull above the primary somatosensory cortex, S1 (AP: −1.8 and ML: +3.0 mm) using a stereotaxic device (David Kopf Instruments). A reference electrode was screwed in the occipital region of the skull and stainless steel electromyography (EMG) electrodes were placed in the nuchal muscle. All the electrodes were connected to a head-mount (catalog no. 8201-SS; Pinnacle Technology) and secured by using dental cement. The mice were allowed to recover for at least 2 weeks. Spontaneous EEG/EMG signals were recorded for 12 hours with a differential amplifier (8200-K1-SL amplifier; Pinnacle Technology). All signals were digitized at a sampling frequency of 1,000 Hz, filtered (1-100 Hz bandpass for EEG; 10-1 kHz bandpass for EMG), and acquired using Sirenia Acquisition program (Pinnacle Technology). Data were analyzed offline using Matlab (R2016a; MathWorks). The spectral power was calculated in 0.5-Hz bins (fast Fourier transform with Hamming window) with artifact-free 4-hour EEG signals from each animal. The power for the spectral band was normalized in reference to the power of the entire EEG spectrum (1-100 Hz) in each animal and averaged across all the animals in the same treatment or drug condition.
as §3, §4

WT mice = experiment: Open field test of locomotor activity, WT mice; type: in vivo
Protocol: (§5) For performing the open field test, mice were allowed to habituate to the behavioral testing room for 1 hour before the experiment. The locomotor activity in mice was evaluated over a 90 minute period in an automated Omnitech Digiscan apparatus (AccuScan Instruments). Locomotor activity was assessed as total distance traveled (m). For drug treatment experiments, mice received an intraperitoneal injection 15 minutes before the assay and then where placed kindly in the left corner, head facing into the corner.
(§6) The effects of mGluR2/3 activation on the locomotor activity of WT mice and Ptchd1 mutant mice were evaluated. In brief, all mice were treated with mGluR2/3 agonist, LY379268, at three different dosages (1 mg/kg, 5 mg/kg and 10 mg/kg) for open-field testing.
(§7) Here, whether mGluR3 activation would rescue the hyperactivity phenotype of Ptchd1 KO mice was evaluated. Locomotor activity estimated as total distance travelled (in) was assessed over a 90 min period in an automated Omnitech Digiscan apparatus. For drug treatment experiments, mice were placed in the open-field arena for 30 minutes prior to Mavalon 63 (5 mg/kg and 10 mg/kg in saline; i.p.), or vehicle injections before being returned to the arena.

Ptchd1 KO mice [2] = experiment: Open field test of locomotor activity, Ptchd1 KO mice; type: in vivo
Protocol: as §5, §6, §7

COc1ccc(C#Cc2ccc(C(=O)N3CCC[C@@H](O)C3)c(F)c2)cc1 [ML337, (R)-(2-fluoro-4-((- 4-methoxy-phenyl)ethynyl)phenyl) (3-hydroxypiperidin-1-yl)methanone]
rebound burst firing, occlusion experiment (WT TRN neurons; LY379268 applied in the presence of (after pretreatment with) ML337): blocked LY379268-induced enhancement of rebound bursting | number of rebound burst firings (WT TRN neurons; TRN neurons, ML337 5 μM bath application alone): decrease in the repetitive rebound bursting; also recorded: reduces the repetitive burst firings; also recorded: number of rebound burst firing was reduced

CN1C(=O)c2cccn2-c2cc(-c3ccc(F)cn3)ccc2C12CC2 [Mavalon 63, 5-Methyl-9-(5-fluoropyridin-2-yl)-spiro [benzo[f]pyrrolo[1,2-a][1,4]diazepine-6,1′-cyclopropan]-4(5H)-one]
number of rebound burst firings (WT TRN neurons; WT TRN neurons, Mavalon 63 in bath, after somatic hyperpolarization pulse, holding potentials −80 mV to −50 mV): significant increase in repetitive rebound bursting; also recorded: increase in the number of rebound burst firings; also recorded: Significant changes were detected at a membrane holding potentials between −70 mV and −60 mV | repetitive rebound bursting (Ptchd1 KO TRN neurons): significant increase in repetitive rebound bursting | paired-pulse ratio (PPR) (cortico-TRN synapses): not significantly increased | paired-pulse ratio (PPR) (cortico-TRN synapses; listed as mGluR3 PAM): No significant changes in PPR | paired-pulse ratio (PPR) (thalamo-TRN synapses): no significant changes in the size of PPR | paired-pulse ratio (PPR) (thalamo-TRN synapses; listed as mGluR3 PAM): no significant changes in the PPR | length of NREM sleep bout (wild type mice): no change was observed | length of NREM sleep bout (Ptchd1 KO mice [1]): specifically increased the Non-REM (NREM) sleep bout length; also recorded: increased the length of NREM sleep bout | locomotor activity (total distance travelled) (WT mice; WT mice, Mavalon 63 5 mg/kg and 10 mg/kg i.p., 90 min): no significant effect on locomotor activity | spontaneous locomotion activity (WT mice; wild type mice, Mavalon 63 30 mg/kg i.p.): No effect on the spontaneous locomotion activity | locomotor activity (total distance travelled) (Ptchd1 KO mice [2]; Mavalon 63 5 mg/kg and 10 mg/kg i.p., 90 min): no significant effect on locomotor activity | locomotor activity (hyperactivity) (Ptchd1 KO mice [2]; Mavalon 63 30 mg/kg i.p., p=0.06, Bonferroni's multiple comparisons test): trend of reducing the hyperactivity | hyperactivity phenotype, summary over doses (Ptchd1 KO mice [2]; Mavalon 63 5, 10, 30 mg/Kg i.p., dose-dependent manner): able to normalize the hyperactivity phenotype

Cc1cc(-c2nc(CN3CCNCC3)no2)cc2c1C(=O)N(Cc1ccc(OC(F)(F)F)cc1)C2 [AZD8529, 1H-Isoindol-1-one, 2,3-dihydro-7-methyl-5-[3-(1-piperazinylmethyl)-1,2,4-oxadiazol-5-yl]-2-[[4-(trifluoromethoxy)phenyl]methyl]-]
paired-pulse ratio (PPR) (cortico-TRN synapses): significant increase in the paired-pulse ratio (PPR); also recorded: significantly increased | paired-pulse ratio (PPR) (thalamo-TRN synapses): no significant changes in the size of PPR | locomotor activity (WT mice; WT mice, AZD8529 three dosing levels i.p., 90 minutes): reduced locomotor activity | locomotor activity (Ptchd1 KO mice [2]; AZD8529 10, 20, 50 mg/Kg i.p., 90 minutes): reduced locomotor activity
